Data published in ChEMBL document CHEMBL1201862, “PubChem BioAssay data set” (2004).
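In this assay, cells in 96-well plates receive the compound at five concentrations for 48 hours. Endpoints are linearly interpolated between the surrounding concentrations. GI50 marks 50% less growth.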 Active and inactive are the calls of the source. No stated cut-off is given here; in the data, active = GI50 up to about 1.1 µM and inactive = higher.

Experiments:
Experiment in all cases: growth of human tumour cells (NCI), 48 h
[1] = test system: LOX IMVI
[2] = test system: SNB-19
[3] = test system: SN12C
[4] = test system: BT-549
[5] = test system: HCT-15
[6] = test system: HL-60
[7] = test system: SF-295
[8] = test system: UACC-62
[9] = test system: PC-3
[10] = test system: A498
[11] = test system: OVCAR-4
[12] = test system: T47D
[13] = test system: SNB-75
[14] = test system: HCT-116
[15] = test system: NCI-H522
[16] = test system: MCF7
[17] = test system: A549
[18] = test system: MDA-N

| SMILES | GI50 [1] | GI50 [2] | GI50 [3] | GI50 [4] | GI50 [5] [µM] | GI50 [6] | GI50 [7] | GI50 [8] | GI50 [9] | GI50 [10] | GI50 [11] | GI50 [12] | GI50 [13] | GI50 [14] | GI50 [15] | GI50 [16] | GI50 [17] | GI50 [18] |
| --- | --- | --- | --- | --- | --- | --- | --- | --- | --- | --- | --- | --- | --- | --- | --- | --- | --- | --- |
| CCOC(=O)c1c(CN2CCCC2)n(-c2ccccc2)c2cc(Br)c(OC)cc12 | 13.8 µM (inactive) | 33.7 µM (inactive) | 26.1 µM (inactive) | 18.7 µM (inactive) | 14.4 | 12.5 µM (inactive) | 14.8 µM (inactive) | 10.9 µM (inactive) | 20.8 µM (inactive) | 4.78 µM (inactive) | 33.4 µM (inactive) | 14.5 µM (inactive) | 5.97 µM (inactive) | 11.2 µM (inactive) | 13.7 µM (inactive) | 6.87 µM (inactive) | 7.35 µM (inactive) | 29.3 µM (inactive) |
| CCOc1c(OC)cc(-c2nc3n(n2)C(=O)C(CC)S3)cc1OC (configuration not stated) | > 10 µM (inactive) | > 10 µM (inactive) | > 10 µM (inactive) | > 10 µM (inactive) | > 10 | > 10 µM (inactive) | > 10 µM (inactive) | > 10 µM (inactive) | > 10 µM (inactive) | > 10 µM (inactive) | > 10 µM (inactive) | > 10 µM (inactive) | > 10 µM (inactive) | > 10 µM (inactive) | > 10 µM (inactive) | > 10 µM (inactive) | > 10 µM (inactive) | > 10 µM (inactive) |
| COc1ccc(C(=O)/C=C/c2ccc(O)c(O)c2)c(OC)c1 | 3.58 µM (inactive) | 2.96 µM (inactive) | 1.22 µM (inactive) | 3.26 µM (inactive) | 0.292 | 0.377 µM (active) | 3.66 µM (inactive) | 2.98 µM (inactive) | 4.8 µM (inactive) | 4.5 µM (inactive) | 12.4 µM (inactive) | 1.55 µM (inactive) | 1.91 µM (inactive) | 0.638 µM (active) | 0.245 µM (active) | 0.301 µM (active) | 14 µM (inactive) | 0.454 µM (active) |
| CC1(C)OC(=O)CC12CCN(Cc1ccccc1)CC2 | > 100 µM (inactive) | > 100 µM (inactive) | > 100 µM (inactive) | > 100 µM (inactive) | > 100 | > 100 µM (inactive) | > 100 µM (inactive) | > 100 µM (inactive) | > 100 µM (inactive) | > 100 µM (inactive) | > 100 µM (inactive) | > 100 µM (inactive) | > 100 µM (inactive) | > 100 µM (inactive) | > 100 µM (inactive) | > 100 µM (inactive) | > 100 µM (inactive) | > 100 µM (inactive) |
| CC(C)(C)NC(=O)/C(=C\Sc1ccccc1)c1ccccc1 | 20.3 µM (inactive) | > 100 µM (inactive) | > 100 µM (inactive) | > 30.3 µM (inactive) | > 48.5 | > 100 µM (inactive) | > 100 µM (inactive) | > 100 µM (inactive) | > 76.2 µM (inactive) | > 100 µM (inactive) | > 68.4 µM (inactive) | 56.1 µM (inactive) | > 100 µM (inactive) | > 65.6 µM (inactive) | 6.15 µM (inactive) | > 73.8 µM (inactive) | > 100 µM (inactive) | 71.1 µM (inactive) |
| CC(C)(CO)CNc1cc(Cl)nc(N)n1 | > 100 µM (inactive) | – | > 100 µM (inactive) | > 100 µM (inactive) | > 100 | > 100 µM (inactive) | > 100 µM (inactive) | > 100 µM (inactive) | > 100 µM (inactive) | > 100 µM (inactive) | > 100 µM (inactive) | 43.2 µM (inactive) | > 100 µM (inactive) | > 100 µM (inactive) | > 100 µM (inactive) | > 100 µM (inactive) | > 100 µM (inactive) | > 100 µM (inactive) |
